Experimental findings from patent publication US20250154169A1, “COMPOUNDS AND METHODS FOR MODULATING SPLICING” (REMIX THERAPEUTICS INC., priority 2021, published 2025) are described below.

pIC50: −log10 of the molar value. Where two headings read alike, the source gives them in different places.

Holding throughout (format): cell-based, human
The subject of one assay is Target C mRNA. In words: Splicing RT-qPCR gene panel, Target C canonical junction (CJ) mRNA. Particulars: Homo sapiens, Tables 4A/4B, read-out: Target C (IC50, decrease in CJ mRNA, gene panel). The method, then: (§1) Compounds described herein were used to modulate RNA transcript abundance in cells. The expression of a target mRNA was measured by detecting the formation of an exon-exon junction in the canonical transcript (CJ). A compound mediated exon-inclusion event was detected by observing an increase in formation of a new junction with an alternative exon (AJ). Real-time qPCR assays were used to detect these splicing switches and interrogate the potency of various compounds towards different target genes. A high-throughput real time quantitative PCR (RT-qPCR) assay was developed to measure these two isoforms of the mRNA (CJ and AJ) for exemplary genes, such as HTT, SMN2, and MYB, together with a control housekeeping gene, GAPDH or GUSB or PPIA, used for normalization. Briefly, the A673 or K562 cell line was treated with various compounds described herein (e.g., compounds of Formula (I)). After treatment, the levels of the HTT, MYB, or SMN2 mRNA targets were determined from each sample of cell lysate by cDNA synthesis followed by qPCR.
(§2) The A673 cell line was cultured in DMEM with 10% FBS. Cells were diluted with full growth media and plated in a 96-well plate (15,000 cells in 100 ul media per well). The plate was incubated at 37° C. with 5% CO2 for 24 hours to allow cells to adhere. An 11-point 3-fold serial dilution of the compounds was made in DMSO then diluted in media in an intermediate plate. Compounds were transferred from the intermediate plate to the cell plate with the top dose at a final concentration of 10 uM in the well. Final DMSO concentration was kept at or below 0.25%. The cell plate was returned to the incubator at 37° C. with 5% CO2 for an additional 24 hours.
(§3) The K562 cell line was cultured in IMDM with 10% FBS. For K562, cells were diluted with full growth media and plated in either a 96-well plate (50,000 cells in 50 uL media per well) or a 384-well plate (8,000-40,000 cells in 45 uL media per well). An 11-point 3-fold serial dilution of the compounds were made in DMSO then diluted in media in an intermediate plate. Compound was transferred from the intermediate plate to the cell plate with the top dose at a final concentration of 10 uM in the well. Final DMSO concentration was kept at or below 0.25%. Final volume was 100 uL for 96-well plate and 50 uL for 384-well plate. The cell plate was then placed in an incubator at 37° C. with 5% CO2 for 24 hours.
(§4) The cells were then gently washed with 50 uL-100 uL cold PBS before proceeding to addition of lysis buffer. 30 uL-50 uL of room temperature lysis buffer with DNAse I (and optionally RNAsin) was added to each well. Cells were shaken/mixed thoroughly at room temperature for 5-10 minutes for lysis to take place and then 3 uL-5 uL of room temperature stop solution was added and wells were shaken/mixed again. After 2-5 minutes, the cell lysate plate was transferred to ice for RT-qPCR reaction setup. The lysates could also be frozen at −80° C. for later use.
(§5) In some cases, a direct lysis buffer was used. An appropriate volume of 3× lysis buffer (10 mM Tris, 150 mM NaCl, 1.5%-2.5% Igepal and 0.1-1 U/uL RNAsin, pH 7.4) was directly added to either K562 or A673 cells in media and mixed by pipetting 3 times. The plates were then incubated at room temperature with shaking/rocking for 20-50 minutes to allow for lysis to take place. After this time, the cell lysate plate was transferred to ice to set up for the RT-qPCR reactions. The lysates could also be frozen at −80° C. for later use.
(§6) To set up 10 uL RT-qPCR reactions, cell lysates were transferred to 384-well qPCR plates containing the master mix according to the table below. The plates were sealed, gently vortexed, and spun down before the run. The volumes were adjusted accordingly in some instances where the reaction was carried in 20 μL. The table below summarizes the components of the RT-qPCR reactions:
(§7) The RT-qPCR reaction was performed using a QuantStudio (ThermoFisher) under the following fast cycling conditions. […]
For orientation: Quantitative PCR measures a nucleic acid by following its amplification.

Assay [1] concerns HTT mRNA. In words: Splicing RT-qPCR assay, HTT canonical (CJ) and alternative (AJ) junction mRNA. Particulars: Homo sapiens, A673 or K562 cells, 24 hours compound treatment; for pIC50: 24 h, read-out: HTT CJ (IC50, decrease in canonical junction mRNA); for AC50: read-out: HTT AJ (AC50, increase in alternative junction mRNA). A digest of the protocol: (§8)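 One-step RT-qPCR on cell lysates, CJ and AJ isoforms quantified; housekeeping normalization GAPDH/GUSB (K562) or PPIA (A673). Cells: A673 in DMEM/10% FBS or K562 in IMDM/10% FBS. Compounds 11-pt 3-fold, top 10 uM, 24 h, 37 °C, 5% CO2.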

Assay [2] has as its system HTT mRNA. Put plainly: Splicing RT-qPCR gene panel, HTT canonical junction (CJ) mRNA. As to conditions: Homo sapiens, Tables 4A/4B, read-out: HTT (IC50, decrease in CJ mRNA, gene panel). The method, then: as §1, §2, §3, §4, §5, §6, §7
A further assay relates to MYB mRNA. Put plainly: Splicing RT-qPCR assay, MYB canonical (CJ) and alternative (AJ) junction mRNA. Particulars: Homo sapiens; for AC50: read-out: MYB AJ (AC50, increase in alternative junction mRNA). A digest of the protocol: as §8
The test system of the next assay is SMN2 mRNA. Put plainly: Splicing RT-qPCR gene panel, SMN2 canonical junction (CJ) mRNA. Particulars: Homo sapiens, Tables 4A/4B, read-out: SMN2 (IC50, decrease in CJ mRNA, gene panel). The method, then: as §1, §2, §3, §4, §5, §6, §7
The mark [3] stands for this setting: 24 h, A673 or K562 cells, 24 hours compound treatment, RT-qPCR.
Where [4] appears, read: 24 h, A673 or K562 cells, 24 hours compound treatment, RT-qPCR, read-out: MYB CJ (IC50, decrease in canonical junction mRNA).
Setting [5] is: Tables 4A/4B, canonical junction qPCR panel, read-out: MYB (IC50, decrease in CJ mRNA, gene panel).

For orientation: pIC50 means −log10 of the IC50, conventionally taken in molar units. Broadly, the AC50 is the concentration at which the activity in the assay is half-maximal. As to `Cc1cn2cc(NC(=O)c3ccc(N4CC[C@@H](N(C)C)C4)c4cn(C)nc34)cc(F)c2n1` (single isomer, unassigned) [Compound 350, 4-[3-(dimethylamino)pyrrolidin-1-yl]-N-{8-fluoro-2-methylimidazo[1,2-a]pyridin-6-yl}-2-methylindazole-7-carboxamide], the pIC50 with Target C mRNA is < 5.00; with HTT mRNA [1] it was 5.00 to 6.00; in the assay with HTT mRNA [2], 5.00 to 6.00; in the assay on MYB mRNA (setting [4]), > 7.00; in the assay with MYB mRNA (setting [5]) it was > 7.00; with SMN2 mRNA it was > 7.00. Further, the values for the AC50 with HTT mRNA [1] and in the assay with MYB mRNA (setting [3]) were 1000 to 10000 nM and < 100 nM, respectively.
With `Cc1cn2cc(NC(=O)c3ccc(N4CC[C@H](N(C)C)C4)c4cn(C)nc34)cc(F)c2n1` (single isomer, unassigned) [Compound 351, 4-[3-(dimethylamino)pyrrolidin-1-yl]-N-{8-fluoro-2-methylimidazo[1,2-a]pyridin-6-yl}-2-methylindazole-7-carboxamide], the pIC50 was < 5.00 in the assay on Target C mRNA; 5.00 to 6.00 in the assay on HTT mRNA [1]; 5.00 to 6.00 with HTT mRNA [2]; > 7.00 in the assay with MYB mRNA (setting [4]); > 7.00 in the assay with MYB mRNA (setting [5]); > 7.00 in the assay with SMN2 mRNA. Also, the AC50 is 1000 to 10000 nM in the assay with HTT mRNA [1] and < 100 nM with MYB mRNA (setting [3]).
`Cc1cn2cc(NC(=O)c3ccc(N4CCN[C@@H](C)C4)c4cn(C)nc34)cc(F)c2n1` (single isomer, unassigned) [Compound 352]: the pIC50 is 5.00 to 6.00 with Target C mRNA; 6.00 to 7.00 in the assay with HTT mRNA [1]; 6.00 to 7.00 in the assay with HTT mRNA [2]; > 7.00 in the assay on MYB mRNA (setting [4]); > 7.00 with MYB mRNA (setting [5]); > 7.00 in the assay on SMN2 mRNA. The results for the AC50 with HTT mRNA [1] and in the assay on MYB mRNA (setting [3]) were 100 to 1000 nM and < 100 nM, respectively.
For `Cc1cn2cc(NC(=O)c3ccc(N4CCN[C@H](C)C4)c4cn(C)nc34)cc(F)c2n1` (single isomer, unassigned) [Compound 353], the pIC50 with Target C mRNA was 5.00 to 6.00; with HTT mRNA [1], 6.00 to 7.00; in the assay on HTT mRNA [2], 6.00 to 7.00; in the assay with MYB mRNA (setting [4]) it was > 7.00; in the assay with MYB mRNA (setting [5]), > 7.00; in the assay on SMN2 mRNA, > 7.00. For the same molecule, the values for the AC50 in the assay on HTT mRNA [1] and with MYB mRNA (setting [3]) were 100 to 1000 nM and < 100 nM, respectively.
Regarding `CNC1CCN(c2ccc(C(=O)Nc3cc(F)c4nc(C)cn4c3)c3nn(C)cc23)C1` (stereo in doubt) [Compound 387, N-{8-fluoro-2-methylimidazo[1,2-a]pyridin-6-yl}-2-methyl-4-[(3R)-3-(methylamino)pyrrolidin-1-yl]indazole-7-carboxamide], the pIC50 with Target C mRNA was < 5.00; with HTT mRNA [1], 5.00 to 6.00; in the assay with HTT mRNA [2] it was 5.00 to 6.00; in the assay on MYB mRNA (setting [4]), > 7.00; in the assay on MYB mRNA (setting [5]), > 7.00; in the assay with SMN2 mRNA, > 7.00. Moreover, the AC50 was 1000 to 10000 nM with HTT mRNA [1] and < 100 nM with MYB mRNA (setting [3]).
Regarding `CNC1CCN(c2ccc(C(=O)Nc3cc(F)c4nc(C)cn4c3)c3nn(C)cc23)C1` (stereo in doubt) [Compound 388, (S)—N-(8-fluoro-2-methylimidazo[1,2-a]pyridin-6-yl)-2-methyl-4-(3-(methylamino)pyrrolidin-1-yl)-2H-indazole-7-carboxamide], the pIC50 in the assay on Target C mRNA is < 5.00; in the assay on HTT mRNA [1], 5.00 to 6.00; in the assay with HTT mRNA [2], < 5.00; with MYB mRNA (setting [5]) it was > 7.00; in the assay with SMN2 mRNA, > 7.00. Also, the AC50 in the assay on HTT mRNA [1] was 1000 to 10000 nM.
As for `C/C=C/n1cc2c(N3CCNCC3)ccc(C(=O)Nc3cc(F)c4nc(C)cn4c3)c2n1` [Compound 445, N-{8-fluoro-2-methylimidazo[1,2-a]pyridin-6-yl}-4-(piperazin-1-yl)-2-[(1E)-prop-1-en-1-yl]indazole-7-carboxamide], the negative logarithm of the IC50 (pIC50) with Target C mRNA is 6.00 to 7.00; in the assay with HTT mRNA [2], > 7.00; in the assay on MYB mRNA (setting [5]), > 7.00; with SMN2 mRNA, > 7.00.
`CCNC1CCN(c2cc(F)c(C(=O)Nc3cn4cc(C)nc4c(F)c3OC)c3nn(C)cc23)CC1` [Compound 471]: the pIC50 with Target C mRNA, in the assay with HTT mRNA [2], with MYB mRNA (setting [5]) and with SMN2 mRNA was > 7.00 throughout.
